Experimental data taken from publication PMC7866587, “Cell cycle arrest and apoptosis induction by Juniperus communis extract in esophageal squamous cell carcinoma through activation of p53‐induced apoptosis pathway” (Food Science & Nutrition, 2020).
In brackets after ≈: the same amount, converted by molar mass.

Assays:
[1] = system: CE48T/VGH cells; test: MTT cell viability assay; assay type: cell-based, human; conditions: mean ± SD; for IC50: Homo sapiens
Description: (§1) CE81T/VGH (human esophageal squamous cell carcinoma), CE48T/VGH (human esophageal epidermoid carcinoma (VGH), SVEC (mouse vascular endothelial cell) and MDCK (cannis kidney epithelial cells) were purchased from the Food Industry Research and Development Institute. CE81T/VGH, CE48T/VGH, SVEC, and MDCK were cultured in Dulbecco's Modified Eagle Medium supplemented with 10% fetal bovine serum (Gibco BRL), 10 mM HEPES (Gibco), 1 mM pyruvate (Gibco), P/S (100 μg/ml penicillin, and 100 μg/ml streptomycin; Gibco), and non‐essential amino acids (Gibco, CE81T/VGH and CE48T/VGH only). Cells were grown in 10 cm^2 culture dishes in a humidified atmosphere with 5% CO2 at 37°C. The TP53 in the CE81T/VGH cells was mutated, which was detected using automated extraction of nucleic acids (AccuBioMed Co., Ltd.) and Femtopath Human Primer Sets (HongJing Biotech). JCo was purchased from the PHOENIX company and extracted using steam distillation. The clinical drug 5‐Fluorouracil (5‐FU; Sigma) was prepared in dimethyl sulfoxide (DMSO) in each in vitro experiment. Cells were treated with equivalent amounts of DMSO in the control and treatment groups, and the final concentration of DMSO in each experiment was 0.01%–0.5%.
(§2) The viability of CE81T/VGH, CE48T/VGH, MDCK, and SVEC cells was determined using a modified 3‐(4,5‐dimethylthiazol‐2‐yl)‐2,5‐diphenyltetrazolium bromide (MTT) assay. Cells were cultured in a 96‐well plate at a density of 5 × 10^3 cells/well for 24 hr and treated with different concentrations of JCo extract or 5‐FU for 24, 48, and 72 hr. MTT was dissolved in the base medium (400 μg/mL, Sigma), and 100 μl of solution was added into each well and incubated for 6–8 hr. The MTT formazan crystals were dissolved in 50 μL DMSO and the optical density (O.D.) was detected using a microplate reader (Molecular Devices, Spec384) at 550 nm. Cell viability was calculated as the O.D. percentage relative to the controls. The half‐maximal inhibitory concentration (IC50) value of JCo extract was measured from the cell viability assay.

[2] = system: CE81T/VGH cells; test: MTT cell viability assay; assay type: cell-based, human; conditions: for IC50: Homo sapiens, CE81T/VGH, mean ± SD
Description: as §1, §2

[3] = system: SVEC cells; test: MTT cell viability assay (normal cells); assay type: cell-based; conditions: Mus musculus, mean ± SD
Description: as §1, §2

[4] = system: MDCK cells; test: MTT cell viability assay (normal cells); assay type: cell-based, cannis; conditions: Canis lupus familiaris, mean ± SD
Description: as §1, §2

O=c1[nH]cc(F)c(=O)[nH]1 [5‐FU, 5‐fluorouracil]
IC50 (cell viability) ([1]; 48 hr): 5.64 ± 0.34 mg/L (≈ 43.4 µM)
IC50 ([1]; 24 hr): 16 ± 0.03 mg/L (≈ 123 µM)
IC50 ([1]; 72 hr): 3.73 ± 0.06 mg/L (≈ 28.7 µM)
IC50 ([2]; 24 hr): > 20 mg/L
IC50 ([2]; 48 hr): 15.3 ± 6.74 mg/L (≈ 118 µM)
IC50 ([2]; 72 hr): 1.62 ± 0.04 mg/L (≈ 12.5 µM)
selection for ESCC versus normal cells (from IC50 values) ([2]; after 48 and 72 hr): lower
selection between ESCC and normal cells (from IC50 values) ([2]; after 24 hr): no obvious selection
IC50 ([3]; 24 hr): 3.53 ± 0.29 mg/L (≈ 27.1 µM)
IC50 ([3]; 48 hr): < 0.63 mg/L
IC50 ([3]; 72 hr): < 0.63 mg/L
IC50 ([4]; 24 hr): > 20 mg/L
IC50 ([4]; 48 hr): < 0.63 mg/L
IC50 ([4]; 72 hr): < 0.63 mg/L
